In patent publication US5882881A, “Inhibition of cyst formation by cytoskeletal specific drugs” (priority 1998, dated 1999):
“Also recorded” adds a separate entry of the source. Read-outs that look alike come from different tables or passages of the source.

Key:
Murine CPK Cells [1] = assay: In vitro cyst formation and cyst size in suspension culture of murine CPK cells; type: cell-based, mouse; details: for Cyst Size: mean ± SD of twenty cysts, concentrations as in Table II, control 71 ± 22; for cyst formation (in words): 24 h suspension culture, ouabain 0.5 mM, also 1 mM, b155 taxol 25 μM, colchicine 10 μM, vinblastine 1 μM, cytochalasins 10 μM, model species not given
Method: At 10, 21 and 28 days after birth, mice having congenital polycystic kidney disease (CPK) and their phenotypically normal littermates were sacrificed by cervical dislocation. Kidneys were harvested aseptically and washed with DMEM/F12 (Sigma Chemical Co., St. Louis, Mo.) in a 1:1 mix. Each decapsulated kidney was chopped into cubes (1 mm) and incubated in 5 ml of collagenase solution composed of 1 mg/ml collagenase type IV (Worthington Biochemical Corporation, Freehold, N.J.), 1 mg/ml egg white trypsin inhibitor (Worthington) in 1:1 DMEM/F12.
The top 12 mls, which contained both single cells and aggregates of up to 10 cells, as assessed by inverted phase-ontrast microscopy, were placed in 2 ml aliquots in the wells of plastic culture plates (Corning, N.Y.) precoated with 1% agarose in DMEM:F12 (2 ml in each well of a 6-well plate; 1 ml in each well of a 24-well plate). Cell samples were digested with further incubation for 10 minutes in 0.05% trypsin and 0.53 mM EDTA (Gibco, BRL Gaithesburg, Md.) at 37° C. All cultures were plated at a final density of 1-3×10^4 cell, per well. For growth studies of monolayer cells, identical preparations were grown on the plastic surface of the culture plates. Both the monolayers and the cell suspensions were incubated at 37° C. in a moisture saturated incubator in 5% CO2 and air.
(§1) I used the in vitro cyst formation system of the present invention to analyze compounds that affect the process of cyst formation. To determine the therapeutic effectiveness of an agent, cyst-forming cells are suspended in a medium to which the agent has been added. These cells are then cultured on a solid phase without formation of a layer of cells on the surface, such as in the assay system described in Example 1. The extent to which the cells actually form cysts can be detected and compared to the extent of cyst formation expected if no agent were added. If the amount of cyst formation is lower than expected, then the agent is a good candidate for therapeutic intervention of cystic diseases.
(§2) The effects of various metabolic inhibitors on cyst formation were studied in cultures derived from day 21 postnatal CPK mice. […] Taxol (25 μM), a microtubule specific inhibitor, was from Calbiochem (La Jolla, Calif.). All other chemicals were obtained from Sigma Chemical Co. Cytosine arabinoside was added at the final concentration of 20 μg/ml to inhibit DNA synthesis; α-amanitin at 100 ng/ml to inhibit RNA synthesis; cycloheximide at 40 μg/ml to inhibit protein synthesis; amiloride at 1 mM to inhibit the renal epithelial Na^+ -H^+ exchange; ouabain at 0.5 mM to inhibit Na^+ -K^+ -ATPase; brefeldin-A at 10 μg/ml to inhibit transport of surface proteins; griseofulvin at 350 μM to inhibit microtubule function; colchicine at 10 μM to inhibit microtubule polymerization; and cytochalasin-B and cytochalasin-D at 10 μM to depolymerize actin filaments.
(§3) In the presence of these metabolic inhibitors in vitro, cyst formation was noted to be either present or absent; if present, the diameters of 20 cysts from a 0.2 ml aliquot were measured. In the same samples, ^3 H-dThd incorporation was also measured as described above. […] After each wash, cell clusters were collected by centrifuging at 200×g for 1 minute and the supernatant discarded. Washed cell clusters were resuspended in the original volume of growth medium without inhibitors, placed in agarose coated wells and incubated at 37° C. in a moisture saturated incubator in 5% CO2 and air.
(§4) In this table, the mean cyst size is reported as ±SD with a measurement of twenty cysts. The ^3 H-dThd incorporation is reported as ±SD using measurements of three wells. The * indicates […] versus control. […] The entries listed as "NA" in the table indicate data that is not available.

human ADPKD cells = assay: In vitro cyst formation in human ADPKD cells; type: cell-based
Excerpt: I have substituted human ADPKD cells for the murine CPK cells of Example 1 and produced similar results. Other cyst-forming cells are believed to also form suitable results with only minor deviations from the conditions set forth in Example 1.
Cell suspensions were separated from debris by sedimentation at unit gravity and decantation. After washing once with DMEM/F12 medium, cells were suspended in DMEM/F12 supplemented with 1.2 gm/l sodium bicarbonate, 1× insulin, transferrin and selenium (Sigma # 11184), 1% lipids supplement (Sigma # L4646) and 1× antibiotic/antimycotic (Sigma # A7292) at a density of 5×10^4 cells per ml. Two mls of the cell suspension were aliquoted into each well of a six-well plastic cell culture plates that had been precoated with 2 mls of 1% low melting point agarose in DMEM/F12 and incubated at 37° C. in a humidified atmosphere of 5% CO2 in air.
as §1

Murine CPK Cells [2] = assay: 3H-thymidine incorporation (DNA synthesis) in CPK cell suspension culture; type: cell-based, mouse; details: for ^3 H-dThd Incorporation: ± SD, three wells, concentrations as in Table II, control 100 ± 11, 1440 min; for ^3 H-dThd incorporation / DNA synthesis (in words): CPK cultures
Method: Growth studies were performed on kidney cells derived from day 10, 21 and 28 postnatal CPK mice and their normal littermates. Immediately after cells were placed in suspension or monolayer culture, 3 μCi of ^3 H-thymidine (^3 H-dThd, specific activity 45 Ci/mmol, Amersham, Ill.) was placed in each well of the culture plate. DNA synthesis was assessed by incorporation of ^3 H-dThd over the 24 hours of culture, and trichloroacetic acid-insoluble. radioactivity was expressed as cpm/μg protein. Protein was assayed with the BCA reagent as described by the manufacturer (Pierce, Rockford, Ill.). At 24 hours of culture, an aliquot (0.2 ml) of the suspension was removed and the number of cysts counted using an inverted microscope. The number of cysts was expressed as a ratio factored for the total number of cells in the suspension at 24 hours of culture. Cyst diameter was measured at 100× using an eyepiece micrometer.
as §2, §3, §4

Murine CPK Cells [3] = assay: In vitro cyst formation and cyst size in suspension culture of murine CPK cells; type: cell-based, mouse; details: day 21, 24 h, final concentration per Table II (cytosine arabinoside 20 μg/ml, α-amanitin 100 ng/ml, cycloheximide 49 μg/ml, ouabain 1 mM, amiloride 1 mM, brefeldin-A 10 μg/ml, griseofulvin 350 μM, colchicine 10 μM, vinblastine 1 μM, nocodazole 30 μM, taxol 25 μM, cytochalasins 10 μM)
homozygous cpk mice = assay: Survival of cpk mice on weekly intraperitoneal treatment (Example 8, FIG. 2); type: in vivo, mouse
Excerpt: Untreated and methotrexate (MTX) treated polycystic cpk mice all died before 30 days of age. Most polycystic cpk mice treated with weekly taxol survive more than 60 days. The dotted line starting at day 120 indicates the number and age of apparently healthy taxol treated polycystic mice that were sacrificed for histology studies. Pairs of mice were sacrificed at 120 days, 182 days and 210 days of age.
In order to determine whether taxol prevents cyst formation by inhibiting cell division, another drug known to have anti-mitotic activity, methotrexate, was tested for its ability to treat homozygous cpk mice. Six cpk mice were injected intraperitoneally with 15 μl of methotrexate solution (1.1 mg/ml in water) 10-12 days after birth and once every week thereafter. The methotrexate-injected mice survived until between 18 and 27 days after birth, with only one mouse living longer than 28 days. […] Therefore, the anti-mitotic activity of taxol cannot explain its ability to treat CPK mice having a polycystic-type kidney disease. Rather, the results from in vitro tests indicate that agents which interfere with the function of the cytoskeleton, or which inhibit the delivery of membrane proteins are useful in treating cystic diseases such as Polycystic Kidney Disease.
Eleven homozygous cpk mice, raised and identified as in Example 6 were treated with 15 μl of 10 mg/ml taxol in DMSO through intraperitoneal injection beginning 11-14 days after birth. Following the first treatment, the mice were administered with the same treatment once every week thereafter. As controls, 6 cpk mice were treated with 15 μl intraperitoneal injections of DMSO beginning 10-12 days after birth and then once every week thereafter.

[4] = human ADPKD cells, cytosine arabinoside 20 μg/ml, α-amanitin 100 ng/ml, cycloheximide 40 μg/ml, amiloride 1 mM, ouabain 0.5 mM, taxol 25 μM, colchicine 10 μM, vinblastine 1 μM, cytochalasins 10 μM

Compound: C[C@@H]1C[C@@H]([C@H](O)CC2CC(=O)NC(=O)C2)C(=O)[C@@H](C)C1 [Cycloheximide]
- Cyst Formation (+/-) (Murine CPK Cells [1]): +
- Cyst Size (Murine CPK Cells [1]): 68 ± 17 μm
- cyst formation (in words) (human ADPKD cells): Neither cytosine arabinoside (20 μg/ml), α-amanitin (100 ng/ml) nor cycloheximide (40 μg/ml) inhibited cyst formation
- ^3 H-dThd Incorporation (Murine CPK Cells [2]): 88 ± 20 % control

Compound: C=C1C(C)C2C(Cc3ccccc3)NC(=O)C23OC(=O)/C=C/C(O)CCCC(C)C/C=C/C3C1O (stereo not shown) [Cytochalasin-B]
- Cyst Size (Murine CPK Cells [1]): 0 μm
- cyst formation (in words) (Murine CPK Cells [1]; murine CPK cells): effectively inhibited cyst formation in both models
- Cyst Formation (+/-) (Murine CPK Cells [3]): -
- cyst formation (in words) (human ADPKD cells; [4]): effectively inhibited cyst formation in both models
- ^3 H-dThd Incorporation (Murine CPK Cells [2]): 96 ± 5 % control

Compound: CC[C@]1(O)C[C@@H]2CN(CCc3c([nH]c4ccccc34)[C@@](C(=O)OC)(c3cc4c(cc3OC)N(C)[C@H]3[C@@](O)(C(=O)OC)[C@H](OC(C)=O)[C@]5(CC)C=CCN6CC[C@]43[C@@H]65)C2)C1 [Vinblastine]
- Cyst Size (Murine CPK Cells [1]): 0 μm
- cyst formation (in words) (Murine CPK Cells [1]; murine CPK cells): reversibly inhibited in vitro cyst formation in both models
- Cyst Formation (+/-) (Murine CPK Cells [3]): -
- cyst formation (in words) (human ADPKD cells; [4]): reversibly inhibited in vitro cyst formation in both models
- ^3 H-dThd Incorporation (Murine CPK Cells [2]): 93 ± 9 % control

Compound: Nc1ccn([C@@H]2O[C@H](CO)[C@@H](O)[C@@H]2O)c(=O)n1 [Cytosine arabinoside, cytosine arabinoside]
- Cyst Size (Murine CPK Cells [1]): 70 ± 21 μm
- cyst formation (in words) (Murine CPK Cells [1]; murine CPK cells): cyst formation was not affected; also recorded: cyst formation was not impaired after 24 hours of culture
- Cyst Formation (+/-) (Murine CPK Cells [3]): +
- cyst formation (in words) (human ADPKD cells; [4]): Neither cytosine arabinoside (20 μg/ml), α-amanitin (100 ng/ml) nor cycloheximide (40 μg/ml) inhibited cyst formation; also recorded: no effect on in vitro cyst formation is observed
- ^3 H-dThd incorporation / DNA synthesis (in words) (Murine CPK Cells [2]): profound decrease in ^3 H-dThd incorporation; also recorded: effectively abolished ^3 H-dThd incorporation
- ^3 H-dThd Incorporation (Murine CPK Cells [2]): 2 ± 2 % control
- ^3 H-dThd Incorporation (Murine CPK Cells [2]; listed as cytosine arabinoside): 2±2 % control

Compound: α-amanitin
- Cyst Size (Murine CPK Cells [1]): 65 ± 27 μm
- Cyst Formation (+/-) (Murine CPK Cells [1]; murine CPK cells, day 21, 24 h, final concentration per Table II (cytosine arabinoside 20 μg/ml, α-amanitin 100 ng/ml, cycloheximide 49 μg/ml, ouabain 1 mM, amiloride 1 mM, brefeldin-A 10 μg/ml, griseofulvin 350 μM, colchicine 10 μM, vinblastine 1 μM, nocodazole 30 μM, taxol 25 μM, cytochalasins 10 μM)): +
- cyst formation (in words) (human ADPKD cells; [4]): Neither cytosine arabinoside (20 μg/ml), α-amanitin (100 ng/ml) nor cycloheximide (40 μg/ml) inhibited cyst formation
- ^3 H-dThd incorporation / DNA synthesis (in words) (Murine CPK Cells [2]): small, but significant, decrease in ^3 H-dThd incorporation
- ^3 H-dThd Incorporation (Murine CPK Cells [2]): 71 ± 10 % control

Compound: C=C1C(C)C2C(Cc3ccccc3)NC(=O)C23C(OC(C)=O)/C=C/C(C)(O)C(=O)C(C)C/C=C/C3C1O (stereo not shown) [Cytochalasin-D]
- Cyst Size (Murine CPK Cells [1]): 0 μm
- cyst formation (in words) (Murine CPK Cells [1]; murine CPK cells): effectively inhibited cyst formation in both models
- Cyst Formation (+/-) (Murine CPK Cells [3]): -
- cyst formation (in words) (human ADPKD cells; [4]): effectively inhibited cyst formation in both models
- ^3 H-dThd Incorporation (Murine CPK Cells [2]): 97 ± 2 % control

Compound: N=C(N)NC(=O)c1nc(Cl)c(N)nc1N [Amiloride]
- Cyst Size (Murine CPK Cells [1]): 0 μm
- Cyst Formation (+/-) (Murine CPK Cells [3]): -
- cyst formation (in words) (human ADPKD cells; [4]): completely block cyst formation
- cyst formation (in words) (human ADPKD cells; human ADPKD cells, cytosine arabinoside 20 μg/ml, α-amanitin 100 ng/ml, cycloheximide 40 μg/ml, amiloride 1 mM, ouabain 0.5 mM, taxol 25 μM, colchicine 10 μM, vinblastine 1 μM, cytochalasins 10 μM, listed as amiloride): cyst formation can be blocked
- time to lumen appearance after removing the inhibitor (human ADPKD cells; human model): twenty-four
- reversibility of inhibition of cyst formation (human ADPKD cells; human model, inhibitor removed): reversible
- ^3 H-dThd Incorporation (Murine CPK Cells [2]): 72 ± 25 % control

Compound: CN(Cc1cnc2nc(N)nc(N)c2n1)c1ccc(C(=O)N[C@@H](CCC(=O)O)C(=O)O)cc1 [Methotrexate]
- survival, age (homozygous cpk mice; weekly i.p. treatment, DMSO mice survived 24-28 days, FIG. 2: all methotrexate, most taxol mice, b191: remaining six taxol mice > 120, two died < 30): < 30 days
- survival (in words) (homozygous cpk mice; weekly i.p., versus untreated or DMSO): did not appear to survive substantially longer than untreated controls

Compound: COC(=O)Nc1nc2ccc(C(=O)c3cccs3)cc2[nH]1 [Nocodazole]
- Cyst Size (Murine CPK Cells [1]): 0 μm
- cyst formation (in words) (Murine CPK Cells [1]; murine CPK cells): reversibly inhibited
- Cyst Formation (+/-) (Murine CPK Cells [3]): -
- cyst formation (in words) (human ADPKD cells; [4]): reversibly inhibited
- ^3 H-dThd Incorporation (Murine CPK Cells [2]): 87 ± 16 % control

Compound: C[C@H]1CCC/C=C/[C@@H]2C[C@H](O)C[C@H]2[C@H](O)/C=C/C(=O)O1 [Brefeldin-A]
- Cyst Size (Murine CPK Cells [1]): 0 μm
- cyst formation (in words) (Murine CPK Cells [1]; murine CPK cells): completely inhibited cyst formation
- Cyst Formation (+/-) (Murine CPK Cells [3]): -

Compound: COc1cc2c(c(OC)c1OC)-c1ccc(OC)c(=O)cc1[C@@H](NC(C)=O)CC2 [Colchicine]
- ^3 H-dThd Incorporation (Murine CPK Cells [2]): 97 ± 12 % control
